Experimental data as given in US7541478B2, “Coumarin derivative and use thereof” (Takeda Pharmaceutical Company Limited, priority 2004, dated 2009).

How the values were obtained:
[1] = target: T1, mouse abdominal macrophage microsome ACAT (Mus musculus, UniProt Q61263); test: ACAT inhibitory activity (3H-oleyl-CoA, cholesteryl ester formation); assay type: biochemical; settings: microsome from thioglycolate-stimulated C57BL6J mouse macrophage; pre-incubated 37° C. 10 minutes, reaction 37° C. 20 minutes; read-out: IC50 (ACAT inhibiting rate 50%)
T1 construct: then ultracentrifuged (4° C., 50,000 rpm, 90 minutes) to prepare a microsome; from tissue; host or cells: abdominal (peritoneal) macrophages of thioglycolate-stimulated C57BL6J mice, cultured 24 h with rabbit beta-VLDL; microsomal fraction
T1 sequence (Q61263 1-540): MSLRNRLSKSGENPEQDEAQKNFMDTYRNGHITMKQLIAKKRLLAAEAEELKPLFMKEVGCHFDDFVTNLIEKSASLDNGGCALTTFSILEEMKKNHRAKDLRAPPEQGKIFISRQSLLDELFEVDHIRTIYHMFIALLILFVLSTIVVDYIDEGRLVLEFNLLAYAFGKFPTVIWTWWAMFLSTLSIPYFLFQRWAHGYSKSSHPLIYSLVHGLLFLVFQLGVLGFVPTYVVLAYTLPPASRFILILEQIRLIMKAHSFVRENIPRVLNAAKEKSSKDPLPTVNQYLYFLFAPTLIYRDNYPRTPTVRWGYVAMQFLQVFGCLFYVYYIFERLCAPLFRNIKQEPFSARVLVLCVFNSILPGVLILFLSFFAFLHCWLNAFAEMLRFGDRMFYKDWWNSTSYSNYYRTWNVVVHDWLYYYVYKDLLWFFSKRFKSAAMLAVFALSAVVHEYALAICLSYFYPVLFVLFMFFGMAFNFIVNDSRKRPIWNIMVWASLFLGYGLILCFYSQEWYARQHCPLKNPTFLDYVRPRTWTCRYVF
Experimental: According to the method of Hakamada et al. (Experimental Medicine Supplement vol. 14, No. 12, Circulation Research Protocol, p, 49-52, 1996), an abdominal macrophage was taken from a thioglycolate-stimulated C57BL6J mouse and cultured for 24 hours in a RPMI 1640-25 mM HEPES (pH7.0) medium containing rabbit β-very low density lipoprotein (β-VLDL, 150 μg cholesterol/ml) which had been prepared by the method of Ishii et al. (Ishii I et al., Arterioscler, Thromb., 12, 1139-1145, 1992). The abdominal macrophage was then collected by centrifugation (4° C., 1.000 rpm, 5 minutes) and sonicated. The sonicated liquid was centrifuged (4° C., 5000 rpm, 15 minutes) and then ultracentrifuged (4° C., 50,000 rpm, 90 minutes) to prepare a microsome. The microsome thus obtained was used for measuring ACAT inhibitory activity of a test compound as mouse abdominal macrophage microsome ACAT.
A mixture of a test compound, cholesterol-albumin-containing-Tris-HCL buffer (pH 7.5) and mouse abdominal macrophage microsome ACAT was pre-incubated at 37° C. for 10 minutes, and ^3H-oleyl-CoA was added to react at 37° C. for 20 minutes. […] The extract was subjected to silica gel thin chromatography (petroleum ether:diethyl ether:acetic acid=9:1:0.1 v/v), and the resulting ^3H-CE fraction was measured with a scintillation counter. […]

[2] = Oral absorbability: blood level of Compound X after oral administration to rabbits; assay type: in vivo; settings: male New Zealand white rabbits (n=3), 0.5% methylcellulose suspension, 10 mg/kg in terms of Compound X, blood level of Compound X measured
Experimental: [Method] Male New Zealand white rabbits (n=3) were forced to take Compound A, B or X orally (0.5% suspension in methylcellulose, the dose was 10 mg/kg in terms of Compound X). A blood level of Compound X was measured with time to determine the maximum blood level (Cmax) and time required for reaching the maximum blood level (Tmax). Compound X:(2E)-3-{3-[7-chloro-3-(2-{[4-fluoro-2-(trifluoromethyl)phenyl]amino}-2-oxoethyl)-6-methyl-2-oxo-2H-chromen-4yl]phenyl}acrylic acid described in International Publication WO02/06264.

- IC50 [1]: 1960 nM
- Cmax (maximum blood level of Compound X) [2]: 132 ± 29 ng/mL
- Tmax (time required for reaching the maximum blood level) [2]: 40.2 ± 17.4 min
Substance: monocalcium bis((2E)-3-[3-[7-chloro-3-(2-[[4-fluoro-2-(trifluoromethyl)phenyl]amino]-2-oxoethyl)-6-methyl-2-oxo-2H-chromen-4-yl]phenyl]acrylate) trihydrate [Compound A]
